3 compounds from ChEMBL document CHEMBL1201862, “PubChem BioAssay data set” (2004) can be followed below.

The source made the active and inactive calls.

The target of assay [1] is T1, Sentrin-specific protease 7 (Homo sapiens, UniProt Q9BQF6).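 Also: Luminescence-based dose-response confirmation of ultra-high-throughput screening hits, measuring inhibition of SENP7.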
T1 sequence (Q9BQF6 whole entry): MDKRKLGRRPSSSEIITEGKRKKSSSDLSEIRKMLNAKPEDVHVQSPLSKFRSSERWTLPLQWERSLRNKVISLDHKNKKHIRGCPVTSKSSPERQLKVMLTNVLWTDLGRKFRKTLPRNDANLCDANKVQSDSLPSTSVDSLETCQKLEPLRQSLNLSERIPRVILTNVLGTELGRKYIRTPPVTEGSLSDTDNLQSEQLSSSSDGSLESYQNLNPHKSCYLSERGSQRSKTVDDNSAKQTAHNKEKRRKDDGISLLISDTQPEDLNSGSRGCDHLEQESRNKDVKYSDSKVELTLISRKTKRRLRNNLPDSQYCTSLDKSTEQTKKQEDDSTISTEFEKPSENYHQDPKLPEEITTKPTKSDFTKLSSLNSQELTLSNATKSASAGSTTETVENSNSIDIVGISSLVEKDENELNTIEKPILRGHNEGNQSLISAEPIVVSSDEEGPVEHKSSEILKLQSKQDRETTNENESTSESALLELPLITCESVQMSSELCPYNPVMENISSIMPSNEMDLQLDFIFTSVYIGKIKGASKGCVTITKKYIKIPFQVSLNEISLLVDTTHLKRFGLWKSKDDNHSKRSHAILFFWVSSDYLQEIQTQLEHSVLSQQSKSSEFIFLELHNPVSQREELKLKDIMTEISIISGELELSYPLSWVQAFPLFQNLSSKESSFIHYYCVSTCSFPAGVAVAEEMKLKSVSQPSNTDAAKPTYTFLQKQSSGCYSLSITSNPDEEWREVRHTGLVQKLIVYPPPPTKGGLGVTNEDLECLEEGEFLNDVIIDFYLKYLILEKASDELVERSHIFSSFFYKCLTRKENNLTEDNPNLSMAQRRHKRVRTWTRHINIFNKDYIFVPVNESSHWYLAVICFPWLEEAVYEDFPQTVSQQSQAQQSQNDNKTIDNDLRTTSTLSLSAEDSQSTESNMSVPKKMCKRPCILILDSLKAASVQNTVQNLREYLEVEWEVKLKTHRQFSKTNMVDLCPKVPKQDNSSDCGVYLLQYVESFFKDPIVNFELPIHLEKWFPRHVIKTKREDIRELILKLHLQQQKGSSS
The assay is classed as functional.

For assay [2], the target named is T2, Mannose-6-phosphate isomerase (Homo sapiens, UniProt P34949).
T2 sequence (P34949 whole entry): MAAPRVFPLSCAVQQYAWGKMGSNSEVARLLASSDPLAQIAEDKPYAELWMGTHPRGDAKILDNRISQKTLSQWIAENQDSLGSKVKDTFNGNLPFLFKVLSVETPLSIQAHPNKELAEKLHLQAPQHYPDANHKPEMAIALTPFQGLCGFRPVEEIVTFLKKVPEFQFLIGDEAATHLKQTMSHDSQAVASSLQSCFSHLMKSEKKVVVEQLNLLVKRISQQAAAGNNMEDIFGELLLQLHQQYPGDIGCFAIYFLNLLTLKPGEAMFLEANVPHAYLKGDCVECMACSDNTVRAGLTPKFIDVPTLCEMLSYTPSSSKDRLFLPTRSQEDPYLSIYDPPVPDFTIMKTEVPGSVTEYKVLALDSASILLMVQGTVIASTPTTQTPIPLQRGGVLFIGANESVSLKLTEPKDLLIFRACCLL
In words: inhibitors of human PMI, primary screen, biochemical, fluorescence intensity, coupled assay (AID 1209).

Assay [3] concerns the target Protein-tyrosine kinase 6 (Homo sapiens, UniProt Q13882). The assay is classed as functional.
In assay [4] the target is Non-receptor tyrosine-protein kinase TYK2 (Homo sapiens, UniProt P29597). The assay is classed as functional.
Chain of Non-receptor tyrosine-protein kinase TYK2 (P29597 whole entry): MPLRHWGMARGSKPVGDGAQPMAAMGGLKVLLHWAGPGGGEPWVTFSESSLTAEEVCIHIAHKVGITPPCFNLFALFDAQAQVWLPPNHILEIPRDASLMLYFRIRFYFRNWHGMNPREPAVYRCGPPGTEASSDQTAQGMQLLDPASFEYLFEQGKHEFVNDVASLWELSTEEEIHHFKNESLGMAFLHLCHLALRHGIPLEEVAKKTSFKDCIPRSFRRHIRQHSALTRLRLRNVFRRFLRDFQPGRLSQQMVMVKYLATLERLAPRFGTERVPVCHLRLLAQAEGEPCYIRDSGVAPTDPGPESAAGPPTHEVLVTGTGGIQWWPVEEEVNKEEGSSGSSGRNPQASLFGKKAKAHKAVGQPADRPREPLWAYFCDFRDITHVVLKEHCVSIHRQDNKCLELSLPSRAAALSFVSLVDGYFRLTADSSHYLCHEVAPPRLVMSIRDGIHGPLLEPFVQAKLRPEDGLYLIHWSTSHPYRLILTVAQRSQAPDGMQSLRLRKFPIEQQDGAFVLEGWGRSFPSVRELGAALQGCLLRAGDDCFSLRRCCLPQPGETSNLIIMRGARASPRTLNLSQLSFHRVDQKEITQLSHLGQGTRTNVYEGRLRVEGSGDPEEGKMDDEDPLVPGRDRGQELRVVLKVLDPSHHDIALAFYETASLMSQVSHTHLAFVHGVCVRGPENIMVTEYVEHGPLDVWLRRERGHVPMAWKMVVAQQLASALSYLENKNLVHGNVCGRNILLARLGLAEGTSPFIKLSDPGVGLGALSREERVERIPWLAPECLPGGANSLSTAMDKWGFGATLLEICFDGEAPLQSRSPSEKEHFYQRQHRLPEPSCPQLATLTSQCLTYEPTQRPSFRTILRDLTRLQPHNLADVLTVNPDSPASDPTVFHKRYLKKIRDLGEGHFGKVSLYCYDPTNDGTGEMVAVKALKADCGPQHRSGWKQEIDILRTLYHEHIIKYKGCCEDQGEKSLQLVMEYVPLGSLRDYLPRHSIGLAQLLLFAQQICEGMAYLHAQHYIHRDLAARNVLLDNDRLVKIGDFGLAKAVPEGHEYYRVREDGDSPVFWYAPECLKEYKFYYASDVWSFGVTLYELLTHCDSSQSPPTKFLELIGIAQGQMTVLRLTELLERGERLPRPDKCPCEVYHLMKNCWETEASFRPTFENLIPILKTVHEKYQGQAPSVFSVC
Assay [5] addresses Tyrosine-protein kinase Lyn (Homo sapiens, UniProt P07948). The assay is classed as functional.
Assay [6] deals with Mitogen-activated protein kinase 1 (Homo sapiens, UniProt P28482). The assay is classed as functional.
Assay [7] addresses Mitogen-activated protein kinase 12 (Homo sapiens, UniProt P53778). The assay is classed as functional.
For assay [8], the target named is MAP kinase-interacting serine/threonine-protein kinase 2 (Homo sapiens, UniProt Q9HBH9). The assay is classed as functional.
Assay [9] addresses Serine/threonine-protein kinase pim-3 (Homo sapiens, UniProt Q86V86). The assay is classed as functional.
For assay [10], the target named is Receptor tyrosine-protein kinase erbB-2 (Homo sapiens, UniProt P04626). The assay is described as follows: Navigating the Kinome. Panel member name: ERBB2. The assay is classed as functional.
The next assay has as its target Ephrin type-A receptor 2 (Homo sapiens, UniProt P29317). The assay is classed as functional.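 Also: EPHA2 tested as one member of a kinome-wide kinase panel.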
Assay [11] concerns the target Vascular endothelial growth factor receptor 3 (Homo sapiens, UniProt P35916). The assay is classed as functional.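 Also: value from a kinome-wide profiling panel, with FLT4 as the panel member.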
Assay [12] concerns the target Receptor tyrosine-protein kinase erbB-4 (Homo sapiens, UniProt Q15303). The assay is classed as functional.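 Also: ERBB4 member of a kinome-wide kinase profiling panel.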
Assay [13] deals with Casein kinase I isoform alpha (Homo sapiens, UniProt P48729). The assay is classed as functional.
Chain of Casein kinase I isoform alpha (P48729 whole entry, canonical isoform): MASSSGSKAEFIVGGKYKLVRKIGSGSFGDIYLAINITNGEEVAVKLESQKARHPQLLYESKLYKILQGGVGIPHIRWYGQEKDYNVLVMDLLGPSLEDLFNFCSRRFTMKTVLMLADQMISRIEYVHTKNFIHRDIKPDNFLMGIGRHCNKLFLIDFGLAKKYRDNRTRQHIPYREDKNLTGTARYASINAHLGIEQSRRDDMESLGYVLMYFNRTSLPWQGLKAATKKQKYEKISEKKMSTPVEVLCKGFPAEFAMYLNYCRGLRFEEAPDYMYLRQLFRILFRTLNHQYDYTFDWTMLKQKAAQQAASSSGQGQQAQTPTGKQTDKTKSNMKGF
Assay [14] has as its target MAP kinase-activated protein kinase 3 (Homo sapiens, UniProt Q16644). The assay is classed as functional.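 Also: value comes from a kinome-wide profiling panel in which MAPKAPK3 is one of the panel members.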
Assay [15] deals with Interleukin-1 receptor-associated kinase 1 (Homo sapiens, UniProt P51617). The assay is classed as functional.
Chain of Interleukin-1 receptor-associated kinase 1 (P51617 whole entry): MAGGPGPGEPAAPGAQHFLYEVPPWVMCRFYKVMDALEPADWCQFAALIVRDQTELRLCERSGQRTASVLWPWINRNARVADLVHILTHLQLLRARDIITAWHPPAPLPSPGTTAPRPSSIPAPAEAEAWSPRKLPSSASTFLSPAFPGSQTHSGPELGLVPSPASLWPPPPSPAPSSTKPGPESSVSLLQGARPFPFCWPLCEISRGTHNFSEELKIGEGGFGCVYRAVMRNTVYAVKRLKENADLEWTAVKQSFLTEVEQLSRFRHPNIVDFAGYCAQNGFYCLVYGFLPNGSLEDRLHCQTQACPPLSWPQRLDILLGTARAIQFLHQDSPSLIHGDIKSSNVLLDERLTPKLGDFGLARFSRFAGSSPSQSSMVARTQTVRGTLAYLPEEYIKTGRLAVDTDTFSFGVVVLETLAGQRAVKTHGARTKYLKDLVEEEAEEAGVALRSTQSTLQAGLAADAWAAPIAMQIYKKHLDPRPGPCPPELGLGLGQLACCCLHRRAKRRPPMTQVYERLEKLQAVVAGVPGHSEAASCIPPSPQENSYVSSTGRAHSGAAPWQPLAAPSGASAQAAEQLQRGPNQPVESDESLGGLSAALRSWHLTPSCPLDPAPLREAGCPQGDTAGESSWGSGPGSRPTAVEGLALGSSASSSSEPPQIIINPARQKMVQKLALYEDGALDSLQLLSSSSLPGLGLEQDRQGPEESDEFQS
Assay [16] addresses Serine/threonine-protein kinase N2 (Homo sapiens, UniProt Q16513). The assay is classed as functional.
The next assay concerns the target Insulin receptor (Homo sapiens, UniProt P06213). The assay is classed as functional.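 Also: insulin receptor kinase tested as one member of a kinome-wide kinase panel.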
The target in assay [17] is Homeodomain-interacting protein kinase 4 (Homo sapiens, UniProt Q8NE63). The assay is classed as functional.
The target of assay [18] is Serine/threonine-protein kinase MRCK alpha (Homo sapiens, UniProt Q5VT25). The assay is classed as functional.
For assay [19], the target named is Tyrosine-protein kinase ITK/TSK (Homo sapiens, UniProt Q08881). The assay is classed as functional.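 Also: affinity for ITK measured as one member of a broad kinase panel profiling binding across the kinome.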
Assay [20] has as its target Eukaryotic elongation factor 2 kinase (Homo sapiens, UniProt O00418). The assay is classed as functional.
Assay [21] has as its target Mitogen-activated protein kinase 14 (Homo sapiens, UniProt Q16539). The assay is classed as functional.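 Also: part of a kinome-wide panel, MAPK14 entry.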
For assay [22], the target named is Serine/threonine-protein kinase TBK1 (Homo sapiens, UniProt Q9UHD2). In words: Navigating the Kinome. Panel member name: TBK1. The assay is classed as functional.
Chain of Serine/threonine-protein kinase TBK1 (Q9UHD2 whole entry): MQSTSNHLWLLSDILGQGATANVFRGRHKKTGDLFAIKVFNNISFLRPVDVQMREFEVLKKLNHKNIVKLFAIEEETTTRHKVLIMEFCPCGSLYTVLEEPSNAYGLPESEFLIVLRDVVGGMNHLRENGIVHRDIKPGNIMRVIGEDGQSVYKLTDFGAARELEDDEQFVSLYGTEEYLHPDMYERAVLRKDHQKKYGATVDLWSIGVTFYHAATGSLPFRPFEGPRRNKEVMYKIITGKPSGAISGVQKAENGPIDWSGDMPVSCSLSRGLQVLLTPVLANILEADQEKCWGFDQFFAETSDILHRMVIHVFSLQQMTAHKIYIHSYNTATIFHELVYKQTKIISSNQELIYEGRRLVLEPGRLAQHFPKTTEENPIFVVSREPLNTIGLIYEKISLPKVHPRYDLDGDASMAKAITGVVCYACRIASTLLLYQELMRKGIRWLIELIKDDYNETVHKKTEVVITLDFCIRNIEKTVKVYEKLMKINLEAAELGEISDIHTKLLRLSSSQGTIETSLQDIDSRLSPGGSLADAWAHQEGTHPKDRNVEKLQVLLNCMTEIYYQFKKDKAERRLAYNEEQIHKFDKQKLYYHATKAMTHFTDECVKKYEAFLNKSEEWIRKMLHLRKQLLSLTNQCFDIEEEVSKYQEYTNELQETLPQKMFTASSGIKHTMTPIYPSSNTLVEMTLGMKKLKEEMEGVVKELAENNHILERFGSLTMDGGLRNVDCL
Assay [23] deals with Dual specificity protein kinase CLK2 (Homo sapiens, UniProt P49760). The assay is classed as functional.
Chain of Dual specificity protein kinase CLK2 (P49760 whole entry): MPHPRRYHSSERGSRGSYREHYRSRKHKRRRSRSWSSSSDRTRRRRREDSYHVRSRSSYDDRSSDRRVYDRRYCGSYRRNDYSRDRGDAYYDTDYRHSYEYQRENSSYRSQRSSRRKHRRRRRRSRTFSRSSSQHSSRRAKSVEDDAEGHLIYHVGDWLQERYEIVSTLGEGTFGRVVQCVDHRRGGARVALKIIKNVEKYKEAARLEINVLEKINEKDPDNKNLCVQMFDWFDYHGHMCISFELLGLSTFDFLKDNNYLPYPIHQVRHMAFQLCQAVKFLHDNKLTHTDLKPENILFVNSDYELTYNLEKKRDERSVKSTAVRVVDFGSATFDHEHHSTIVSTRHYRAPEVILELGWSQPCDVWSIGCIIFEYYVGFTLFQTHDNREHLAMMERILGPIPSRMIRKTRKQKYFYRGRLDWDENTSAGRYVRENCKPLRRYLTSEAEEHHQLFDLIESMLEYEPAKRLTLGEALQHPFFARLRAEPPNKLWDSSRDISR
The target in assay [24] is Leukocyte tyrosine kinase receptor (Homo sapiens, UniProt P29376). The assay is described as follows: Navigating the Kinome. Panel member name: LTK. The assay is classed as functional.
Chain of Leukocyte tyrosine kinase receptor (P29376 whole entry): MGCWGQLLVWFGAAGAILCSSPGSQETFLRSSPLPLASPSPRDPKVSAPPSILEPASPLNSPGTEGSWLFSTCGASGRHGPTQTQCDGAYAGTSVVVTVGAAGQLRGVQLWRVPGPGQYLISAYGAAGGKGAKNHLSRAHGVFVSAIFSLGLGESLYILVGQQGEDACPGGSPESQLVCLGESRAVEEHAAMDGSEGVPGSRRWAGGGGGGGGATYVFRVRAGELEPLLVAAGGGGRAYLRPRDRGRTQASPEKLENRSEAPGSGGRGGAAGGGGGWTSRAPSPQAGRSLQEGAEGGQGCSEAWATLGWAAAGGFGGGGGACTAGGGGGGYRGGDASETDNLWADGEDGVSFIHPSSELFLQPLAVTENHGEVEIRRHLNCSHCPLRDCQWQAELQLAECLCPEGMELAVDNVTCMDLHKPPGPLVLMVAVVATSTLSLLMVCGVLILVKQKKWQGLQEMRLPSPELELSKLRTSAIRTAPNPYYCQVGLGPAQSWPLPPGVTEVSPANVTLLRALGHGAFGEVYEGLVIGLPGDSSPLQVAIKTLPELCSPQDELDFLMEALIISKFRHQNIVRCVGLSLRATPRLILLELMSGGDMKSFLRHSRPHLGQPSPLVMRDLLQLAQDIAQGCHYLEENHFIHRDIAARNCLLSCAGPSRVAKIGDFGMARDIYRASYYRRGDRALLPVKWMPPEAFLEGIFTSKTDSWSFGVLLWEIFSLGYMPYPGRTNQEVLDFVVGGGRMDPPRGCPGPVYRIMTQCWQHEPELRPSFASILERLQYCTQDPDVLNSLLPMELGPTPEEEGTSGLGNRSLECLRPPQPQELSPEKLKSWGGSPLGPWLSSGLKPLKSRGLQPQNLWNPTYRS

Chain of MAP kinase-activated protein kinase 3 (Q16644 whole entry): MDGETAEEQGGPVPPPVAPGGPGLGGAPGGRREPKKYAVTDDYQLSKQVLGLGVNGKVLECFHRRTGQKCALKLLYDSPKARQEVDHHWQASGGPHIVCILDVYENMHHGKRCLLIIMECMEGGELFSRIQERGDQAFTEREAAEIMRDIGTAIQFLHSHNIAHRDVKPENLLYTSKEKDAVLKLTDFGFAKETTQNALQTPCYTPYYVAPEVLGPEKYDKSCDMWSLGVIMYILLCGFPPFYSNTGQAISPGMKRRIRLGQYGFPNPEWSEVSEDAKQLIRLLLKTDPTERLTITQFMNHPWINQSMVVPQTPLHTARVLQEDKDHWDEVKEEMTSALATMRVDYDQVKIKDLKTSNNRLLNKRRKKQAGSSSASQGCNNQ

The IC50 is the point on the concentration scale where inhibition reaches its midpoint. As to `COc1ccc(-n2c(NC(=O)c3ccco3)c(C#N)c3nc4ccccc4nc32)cc1`, the IC50 in assay [1] was 5780 nM (active); in [2] it was > 50000 nM (not active).
The term Ki denotes a dissociation constant, usually derived from enzyme kinetics or from competition with a known ligand. Take `Cc1n[nH]c2ccc(-c3cncc(OCC(N)Cc4ccc(Cl)c(Cl)c4)c3)cc12` (stereo unspecified): the Ki was > 2510 nM (inactive) in assay [3]; > 2000 nM (inactive) in assay [4]; > 1580 nM (inactive) in [5]; 39.8 nM (active) in assay [6]; 398 nM (active) in assay [7]; 251 nM (active) in assay [8]. Also, the Ki was 15.8 nM (active) in assay [9]; > 1580 nM (inactive) in assay [10]; > 3160 nM (inactive) at Ephrin type-A receptor 2; 1580 nM (active) in [11]; > 3980 nM (inactive) in [12]; 316 nM (active) in assay [13]. Besides, the Ki in assay [14] was > 10000 nM (inactive); in assay [15], 501 nM (active); in assay [16], 20 nM (active); on Insulin receptor it was 2510 nM (active); in assay [17] it was 2510 nM (active); in [18], 7.94 nM (active). The Ki in assay [19] was > 1580 nM (inactive); in assay [20], 3160 nM (active).
As to `[2H]C([2H])([2H])Oc1cccc(C(C)NC(=O)c2sc(-c3ccncc3)nc2C)c1` (stereo unspecified), the Ki in [21] was > 3980 nM (inactive); in [22], > 3160 nM (inactive); in [23] it was > 3980 nM (inactive); in assay [24], > 2510 nM (inactive).
